This test has as its target T1, human metabotropic glutamate receptor 5 (hmGluR5) (Homo sapiens, UniProt P41594).
T1 construct: expressed in transfected cells
In words: Calcium mobilization (FLIPR) assay for negative allosteric modulation, EC80 glutamate, hmGluR5 in HEK 293. The class given is cell-based. Particulars: HEK293; hmGluR5, inhibition of EC80 glutamate response; read-out: FLIPR maximum inhibition. The protocol: The cDNA for rat metabotropic glutamate receptor 5 (rmGluR5) and the cDNA for human metabotropic glutamate receptor 5 (hmGluR5) were generous gifts from S. Nakanishi (Kyoto University, Kyoto, Japan). The rmGluR5 or hmGluR5 was stably expressed in a HEK 293 cell line and grown in Dulbecco's Modified Eagle Medium (DMEM) (Invitrogen, Carlsbad, Calif.) with supplements (10% bovine calf serum, 4 mM glutamine, 100 units/mL penicillin, 100 μg/mL streptomycin and 0.75 mM G1418) at 37° C., 5% CO2. Twenty-four hours prior to assay, cells were seeded into 384-well black wall microtiter plates coated with poly-D-lysine. Just prior to assay, media was aspirated and cells dye-loaded (25 μL/well) with 3 μM Fluo-4/0.01% pluronic acid in assay buffer (Hank's Balanced Saline Solution (HBSS)): 150 mM NaCl, 5 mM KCl, 1 mM CaCl2, 1 mM MgCl2, plus 20 mM N-2-Hydroxyethylpiperazine-N′-2-ethanesulfonic acid (HEPES), pH 7.4, 0.1% bovine serum albumin (BSA) and 2.5 mM probenicid) for 1 hour in 5% CO2 at 37° C. After excess dye was discarded, cells were washed in assay buffer and layered with a final volume equal to 30 μL/well. Basal fluorescence is monitored in a fluorometric imaging plate reader (FLIPR) (Molecular Devices, Sunnyvale, Calif.) with an excitation wavelength of 488 nm and an emission range of 500 to 560 nm. Laser excitation energy was adjusted so that basal fluorescence readings were approximately 10,000 relative fluorescent units. Cells were stimulated with an EC20 or an EC80 concentration of glutamate in the presence of a compound to be tested, both diluted in assay buffer, and relative fluorescent units were measured at defined intervals (exposure=0.6 sec) over a 3 min period at room temperature. Basal readings derived from negative controls were subtracted from all samples. Maximum change in fluorescence was calculated for each well. Concentration-response curves derived from the maximum change in fluorescence were analyzed by nonlinear regression (Hill equation). A negative modulator can be identified from these concentration-response curves if a compound produces a concentration dependent inhibition of the EC80 glutamate response.
(In general: Calcium assays in cells follow changes in intracellular calcium, usually with a dye or a luminescent sensor.)
T1 sequence (P41594 21-1212): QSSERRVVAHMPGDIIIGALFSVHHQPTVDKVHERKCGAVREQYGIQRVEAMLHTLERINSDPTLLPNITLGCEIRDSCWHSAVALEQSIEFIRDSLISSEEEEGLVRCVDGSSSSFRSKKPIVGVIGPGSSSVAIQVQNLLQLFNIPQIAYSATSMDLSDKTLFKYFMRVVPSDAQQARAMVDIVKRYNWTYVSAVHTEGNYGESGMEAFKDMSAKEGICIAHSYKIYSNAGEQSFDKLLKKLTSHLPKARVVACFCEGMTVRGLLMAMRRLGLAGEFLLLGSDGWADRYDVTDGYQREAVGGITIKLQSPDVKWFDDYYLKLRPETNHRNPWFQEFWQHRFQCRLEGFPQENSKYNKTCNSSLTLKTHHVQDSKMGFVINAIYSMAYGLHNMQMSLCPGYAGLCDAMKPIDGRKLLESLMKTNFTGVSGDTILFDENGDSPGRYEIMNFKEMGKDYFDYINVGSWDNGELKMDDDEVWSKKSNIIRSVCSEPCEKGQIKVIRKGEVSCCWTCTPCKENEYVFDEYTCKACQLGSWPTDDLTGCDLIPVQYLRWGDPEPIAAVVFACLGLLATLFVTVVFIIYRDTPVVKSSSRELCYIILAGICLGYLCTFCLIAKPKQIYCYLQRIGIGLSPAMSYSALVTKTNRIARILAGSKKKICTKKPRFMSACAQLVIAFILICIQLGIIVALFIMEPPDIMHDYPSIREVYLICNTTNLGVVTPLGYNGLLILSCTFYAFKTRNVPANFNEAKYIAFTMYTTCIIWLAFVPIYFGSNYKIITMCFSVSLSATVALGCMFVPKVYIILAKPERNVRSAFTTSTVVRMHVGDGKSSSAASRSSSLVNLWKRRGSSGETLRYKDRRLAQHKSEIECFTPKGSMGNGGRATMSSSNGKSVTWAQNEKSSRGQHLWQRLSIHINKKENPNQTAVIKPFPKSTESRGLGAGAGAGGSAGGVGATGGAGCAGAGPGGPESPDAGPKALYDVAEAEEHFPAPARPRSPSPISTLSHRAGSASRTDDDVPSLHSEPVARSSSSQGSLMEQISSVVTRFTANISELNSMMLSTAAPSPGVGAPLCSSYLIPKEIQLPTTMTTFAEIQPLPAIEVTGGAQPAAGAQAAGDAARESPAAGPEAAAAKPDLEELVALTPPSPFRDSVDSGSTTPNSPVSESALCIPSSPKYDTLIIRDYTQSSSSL
As for `O=C(N[C@H]1CCC[C@]2(CCN(c3ccc(F)c(F)c3)C2=O)C1)c1ccccn1` (relative stereo) [Example 75, cis-Pyridine-2-carboxylic acid [2-(3,4-difluoro-phenyl)-1-oxo-2-aza-spiro[4.5]dec-7-yl]-amide], the Emax was 73 to 95%.
Regarding `O=C(N[C@H]1CCC[C@]2(CCN(c3cccc(F)c3)C2=O)C1)c1ccncc1` (relative stereo) [Example 77, cis-N-[2-(3-Fluoro-phenyl)-1-oxo-2-aza-spiro[4.5]dec-7-yl]-isonicotinamide], the Emax was in the range of 73 to 95%.
Consider `O=C(N[C@H]1CCC[C@]2(CCN(c3cc(F)cc(F)c3)C2=O)C1)c1ccncn1` (relative stereo) [Example 79, cis-Pyrimidine-4-carboxylic acid [2-(3,5-difluoro-phenyl)-1-oxo-2-azaspiro[4.5]dec-7-yl]-amide], for which the Emax was 73 to 95%.
As for `Cc1cccc(C(=O)N[C@H]2CCC[C@]3(CCN(Cc4ccccc4)C3=O)C2)n1` (relative stereo) [Example 83, cis-6-methyl-pyridine-2-carboxylic acid (2-benzyl-1-oxo-2-aza-spiro[4.5]dec-7-yl)-amide], the figure is 73 to 95%; as for `Cc1nccc(N2CC[C@]3(CCC[C@H](NC(=O)c4cc(F)cc(F)c4)C3)C2=O)n1` (relative stereo) [Example 85, cis-3,5-Difluoro-N-[2-(2-methyl-pyrimidin-4-yl)-1-oxo-2-aza-spiro [4.5]dec-7-yl]-benzamide], 73 to 95%; as for `Cc1cncc(C(=O)N[C@H]2CCC[C@]3(CCN(c4cc(-c5ccc(F)cc5)ncn4)C3=O)C2)n1` (relative stereo) [Example 86, cis-6-Methyl-pyrazine-2-carboxylic acid {2-[6-(4-fluoro-phenyl)-pyrimidin-4-yl]-1-oxo-2-aza-spiro [4.5]dec-7-yl}-amide], 73 to 95%.
The same measure for `Cc1cccc(C(=O)N[C@H]2CCC[C@]3(CCN(c4cc(-c5ccc(F)cc5)ncn4)C3=O)C2)n1` (relative stereo) [Example 87, cis-6-Methyl-pyridine-2-carboxylic acid {2-[6-(4-fluoro-phenyl)-pyrimidin-4-yl]-1-oxo-2-aza-spiro [4.5]dec-7-yl}-amide]: 73 to 95%; for `O=C(N[C@H]1CCC[C@]2(CCN(c3cc(-c4ccc(F)cc4)ncn3)C2=O)C1)c1cccc(F)c1` (relative stereo) [Example 88, cis-3-Fluoro-N-{2-[6-(4-fluoro-phenyl)-pyrimidin-4-yl]-1-oxo-2-aza-spiro[4.5]dec-7-yl}-benzamide]: 73 to 95%.
As for `Cc1nccc(N2CC[C@]3(CCC[C@H](NC(=O)c4ccc(F)cc4)C3)C2=O)n1` (relative stereo) [Example 89, cis-4-Fluoro-N-[2-(2-methyl-pyrimidin-4-yl)-1-oxo-2-aza-spiro [4.5]dec-7-yl]-benzamide], the figure is 73 to 95%.
For `Cc1nccc(N2CC[C@]3(CCC[C@H](NC(=O)c4ccc(F)c(F)c4)C3)C2=O)n1` (relative stereo) [Example 90, cis-3,4-Difluoro-N-[2-(2-methyl-pyrimidin-4-yl)-1-oxo-2-aza-spiro [4.5]dec-7-yl]-benzamide], the Emax lay within 73 to 95%.
The same measure for `Cc1nccc(N2CC[C@]3(CCC[C@H](NC(=O)c4ccccc4F)C3)C2=O)n1` (relative stereo) [Example 91, cis-2-Fluoro-N-[2-(2-methyl-pyrimidin-4-yl)-1-oxo-2-aza-spiro [4.5]dec-7-yl]-benzamide]: 73 to 95%; for `Cc1cc(C(=O)N[C@H]2CCC[C@]3(CCN(c4ccnc(C)n4)C3=O)C2)ccn1` (relative stereo) [Example 92, cis-2-Methyl-N-[2-(2-methyl-pyrimidin-4-yl)-1-oxo-2-aza-spiro [4.5]dec-7-yl]-isonicotinamide]: 73 to 95%.
The same measure for `O=C(N[C@H]1CCC[C@]2(CCN(c3cccc(F)c3)C2=O)C1)c1cccc(CO)n1` (relative stereo) [Example 93, cis-6-Hydroxymethyl-pyridine-2-carboxylic acid [2-(3-fluoro-phenyl)-1-oxo-2-aza-spiro[4.5]dec-7-yl]-amide]: 73 to 95%; for `O=C(N[C@H]1CCC[C@]2(CCN(c3cccc(F)c3)C2=O)C1)c1cccc(C(F)(F)F)n1` (relative stereo) [Example 94, cis-6-Trifluoromethyl-pyridine-2-carboxylic acid [2-(3-fluoro-phenyl)-1-oxo-2-aza-spiro[4.5]dec-7-yl]-amide]: 73 to 95%; for `Cc1nccc(N2CC[C@]3(CCC[C@H](NC(=O)c4cccc(C(F)(F)F)n4)C3)C2=O)n1` (relative stereo) [Example 96, cis-6-Trifluoromethyl-pyridine-2-carboxylic acid [2-(2-methyl-pyrimidin-4-yl)-1-oxo-2-aza-spiro [4.5]dec-7-yl]-amide]: 73 to 95%.
On to `Cc1nccc(C(=O)N[C@@H]2CC(F)(F)C[C@]3(CCN(c4cc(F)cc(F)c4)C3=O)C2)n1` (relative stereo) [Example 105, trans-2-Methyl-pyrimidine-4-carboxylic acid [2-(3,5-difluoro-phenyl)-9,9-difluoro-1-oxo-2-aza-spiro[4.5]dec-7-yl]-amide], for which the Emax was 47 to 93%.
The same measure for `O=C(N[C@@H]1CC(F)(F)C[C@@]2(CCN(c3ccc(F)cc3)C2=O)C1)c1ccccn1` (relative stereo) [Example 106, cis-Pyridine-2-carboxylic acid [9,9-difluoro-2-(4-fluoro-phenyl)-1-oxo-2-aza-spiro[4.5]dec-7-yl]-amide]: 47 to 93%; for `Cc1cccc(C(=O)N[C@@H]2CC(F)(F)C[C@@]3(CCN(c4cccc(F)c4)C3=O)C2)n1` (relative stereo) [Example 107, cis-6-Methyl-pyridine-2-carboxylic acid [9,9-difluoro-2-(3-fluoro-phenyl)-1-oxo-2-aza-spiro[4.5]dec-7-yl]-amide]: 47 to 93%.
Turning to `Cc1cccc(C(=O)N[C@@H]2CC(F)(F)C[C@@]3(CCN(c4ccnc(C)n4)C3=O)C2)n1` (relative stereo) [Example 108, cis-6-Methyl-pyridine-2-carboxylic acid [9,9-difluoro-2-(2-methyl-pyrimidin-4-yl)-1-oxo-2-aza-spiro[4.5]dec-7-yl]-amide], the Emax is 47 to 93%.
As for `O=C(N[C@@H]1CC(F)(F)C[C@@]2(CCN(c3ccc(F)cn3)C2=O)C1)c1ccccn1` (relative stereo) [Example 111, cis-Pyridine-2-carboxylic acid [9,9-difluoro-2-(5-fluoro-pyridin-2-yl)-1-oxo-2-aza-spiro[4.5]dec-7-yl]-amide], the figure is 47 to 93%; as for `Cc1nccc(N2CC[C@]3(C[C@H](NC(=O)c4ccccn4)CC(F)(F)C3)C2=O)n1` (relative stereo) [Example 112, cis-Pyridine-2-carboxylic acid [9,9-difluoro-2-(2-methyl-pyrimidin-4-yl)-1-oxo-2-aza-spiro[4.5]dec-7-yl]-amide], 47 to 93%.
With `Cc1nccc(C(=O)N[C@@H]2CC(=O)C[C@@]3(CCN(c4cc(F)cc(F)c4)C3=O)C2)n1` (relative stereo) [Example 115, cis-2-Methyl-pyrimidine-4-carboxylic acid [2-(3,5-difluoro-phenyl)-1,9-dioxo-2-aza-spiro[4.5]dec-7-yl]-amide], the Emax fell in the range of 47 to 93%.
On to `Cc1nccc(C(=O)N[C@@H]2C[C@H](O)C[C@@]3(CCN(c4cc(F)cc(F)c4)C3=O)C2)n1` (relative stereo) [Example 116, cis-2-Methyl-pyrimidine-4-carboxylic acid [2-(3,5-difluorphenyl)-9-hydroxy-1-oxo-2-aza-spiro[4.5]dec-7-yl]-amide], for which the Emax fell in the range of 47 to 93%.
The same measure for `Cc1nccc(C(=O)N[C@@H]2C[C@@H](O)C[C@@]3(CCN(c4cc(F)cc(F)c4)C3=O)C2)n1` (relative stereo) [Example 117, trans-2-Methyl-pyrimidine-4-carboxylic acid [2-(3,5-difluorphenyl)-9-hydroxy-1-oxo-2-aza-spiro[4.5]dec-7-yl]-amide]: 47 to 93%; for `Cc1nccc(C(=O)N[C@@H]2C[C@@H](F)C[C@@]3(CCN(c4cc(F)cc(F)c4)C3=O)C2)n1` (relative stereo) [Example 122, trans-2-Methyl-pyrimidine-4-carboxylic acid [2-(3,5-difluoro-phenyl)-9-fluoro-1-oxo-2-aza-spiro[4.5]dec-7-yl]-amide]: 47 to 93%; for `O=C1C[C@@H](NC(=O)c2cccc(F)c2)C[C@]2(CCN(c3cccc(F)c3)C2=O)C1` (relative stereo) [Example 123, cis-3-Fluoro-N-[2-(3-fluoro-phenyl)-1,9-dioxo-2-aza-spiro[4.5]dec-7-yl]-benzamide]: 47 to 93%.

The values above are taken from patent publication US9359297B2, “Spirolactam derivatives and uses of same” (H. Lundbeck A/S, priority 2009, dated 2016).
